The test system of one data set is Male wistar rats. Kind of data set: Carrageenan induced paw edema test in rat. The data set is classed as in vivo. Particulars: oral, 3 hours after carrageenan. The protocol: Carrageenan Induced Paw Edema Test in Rat
The carrageenan paw edema test was performed as described by Winter et al (Proc. Soc. Exp. Biol. Med, 111, 544, 1962). Male wistar rats were selected with body weights equivalent within each group. The rats were fasted for 18 hours with free access to water. The rats were dosed orally with the test compound suspended in the vehicle containing 0.25% carboxymethylcellulose and 0.5% Tween 80. The control rats were administered with vehicle alone. After an hour, the rats were injected with 0.1 ml of 1% Carrageenan solution in 0.9% saline into the sub-plantar surface of the right hind paw. Paw volume was measured using digital plethysmograph before and after 3 hours of carrageenan injection. The average of foot swelling in drug treated animals was compared with that of the control animals. Anti-inflammatory activity was expressed as the percentage inhibition of edema compared with control group [Arzneim-Forsch/Drug Res., 43 (I), 1, 44-50, 1993; Representative results of edema inhibition are shown in the Table VI.
A general note: The carrageenan paw model is a standard test of acute inflammation.

The test system of a further data set is Animals (male wistar). The experiment in a line: Ulcerogenic potential. It is filed as in vivo. Particulars: oral, 4 hours after administration. As for the experimental part: In order to evaluate the compound's role on the ulcer formation, the animals were sacrificed and the stomach was taken out and flushed with 1% formalin. Animals (male wistar. 200 g) were fasted for 18 hours with free access to water and the test compounds were suspended in 0.5% Tween 80 and 0.25% CMC (carboxymethylcellulose) solution to make a uniform suspension. After 4 hours of oral administration of test compounds, all the animals were sacrificed by cervical dislocation. The stomach was dissected carefully and filled up with a sterile saline solution and embedded in 6% formalin solution. […] The test compound treated groups were compared with the vehicle treated groups. […]

The target of another data set is T1, COX-2 (Homo sapiens, UniProt P35354).
T1 construct: Fresh blood was collected in tubes containing sodium heparin by vein puncture from healthy male volunteers; endogenous in cells; host or cells: human whole blood from healthy male volunteers, stimulated with LPS
T1 sequence (P35354 18-604): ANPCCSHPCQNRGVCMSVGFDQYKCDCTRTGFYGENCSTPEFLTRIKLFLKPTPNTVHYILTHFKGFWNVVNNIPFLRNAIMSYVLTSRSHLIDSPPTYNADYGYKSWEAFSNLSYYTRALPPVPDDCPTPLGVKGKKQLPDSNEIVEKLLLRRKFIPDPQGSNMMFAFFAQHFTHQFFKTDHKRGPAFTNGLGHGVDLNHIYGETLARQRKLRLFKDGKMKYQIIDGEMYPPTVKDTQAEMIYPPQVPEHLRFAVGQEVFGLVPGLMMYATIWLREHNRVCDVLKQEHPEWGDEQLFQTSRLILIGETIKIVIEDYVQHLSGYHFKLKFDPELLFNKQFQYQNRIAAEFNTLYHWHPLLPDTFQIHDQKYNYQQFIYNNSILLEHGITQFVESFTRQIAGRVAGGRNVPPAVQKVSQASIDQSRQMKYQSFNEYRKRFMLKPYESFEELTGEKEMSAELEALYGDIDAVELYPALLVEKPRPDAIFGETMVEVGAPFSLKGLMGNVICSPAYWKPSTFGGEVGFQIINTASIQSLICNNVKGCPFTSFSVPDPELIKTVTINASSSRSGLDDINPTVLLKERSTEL
The experiment in a line: Human whole blood assay (PGE-2 inhibition, COX-2). Particulars: LPS stimulated human whole blood, NA = No activity, read-out: % PGE-2 Inhibition in hWBA. The data set is classed as cell-based. As for the experimental part: In Vitro Evaluation of Cyclooxygenase-2 (Cox-2) Inhibition Activity
The COX-2 inhibition activities of the compounds illustrated in the examples were determined by the following method.
Human whole blood provides a protein and cell rich milieu appropriate for the study of the biochemical efficacy of anti-inflammatory compounds such as selective COX-2 inhibitors. […] This correlates with the observation that COX-2 inhibitors have no effect on prostaglandin E2 (PGE2) production in normal blood. These inhibitors were active only after incubation of human blood with lipopolysaccharide (LPS), which induces COX-2 production in the blood.
Fresh blood was collected in tubes containing sodium heparin by vein puncture from healthy male volunteers. The subjects should have no apparent inflammatory conditions and should have not taken NSAIDs for at least 7 days prior to blood collection. Blood was preincubated with aspirin in vitro (12 μg/ml, at time zero) to inactivate COX-1 for 6 hours. Then test compounds (at various concentrations) or vehicle were added to blood, the blood was stimulated with LPS B:4 (10 μg/ml) and incubated for another 18 hours at 37° C. water bath. After which the blood was centrifuged, plasma was separated and stored at −80° C. (J. Pharmacol. Exp. Ther, 271, 1705, 1994; Proc. Natl. Acad. Sci. USA, 96, 7563, 1999). The plasma was assayed for PGE2 using Cayman ELISA kit as per the procedure outlined by the manufacturer (Cayman Chemicals, Ann Arbor, USA).

A further data set relates to DU-145. Kind of data set: Anti-cancer screen (MTT), DU-145. The data set is classed as cell-based. Particulars: Homo sapiens, DU-145, 48 hours.
Another data set concerns TNF-α. The experiment in a line: In vitro measurement of TNF-α in human PBMC (LPS stimulated). The data set is classed as cell-based. The procedure, abridged: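 Healthy-volunteer PBMC (0.5 million/well) in RPMI were pre-incubated with compound 15 min at 37 °C. They were then stimulated with E. coli B4 LPS 1 μg/ml for 18 h at 37 °C, 5% CO2. TNF-α in culture medium was measured by ELISA.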

The record followed here is patent publication US7863446B2, “Heterocycles” (Orchid Research Laboratories Limited, priority 2006, dated 2011).

Usually melting point stands for the temperature of the solid-liquid transition. Broadly, the inhibition is the change of the read-out against control, counted positive when it falls. What is called GI50 is the concentration giving 50% growth inhibition. The low end stands for more potent growth inhibition, the high end for less potent growth inhibition. `CNS(=O)(=O)c1ccc(-c2c(Cl)nc(C(F)(F)F)nc2-c2ccc(S(C)(=O)=O)cc2)cc1` [Example 4, 4-{4-Chloro-6-[4-(methylsulfonyl)phenyl]-2-(trifluoromethyl)pyrimidin-5-yl}-N-methylbenzenesulfonamide] showed a melting point of 226 to 230 °C. Further, the “Inhibition of edema (%) at 5 mg/kg” value with Male wistar rats is listed as 17.12%. In addition, the “Ulcer incidence at 5 mg/kg” value in the data set with Animals (male wistar) is recorded as “Nil”. In addition, the inhibition at 0.25 µM on COX-2 (0.25 μM) worked out at 6.1%. Besides, the inhibition at 1 µM at COX-2 (1 μM) was determined as 22.9%. Besides, the inhibition at 10 µM on COX-2 (10 μM) turned out to be 35.6%. In the data set with DU-145, this compound yielded a 50% growth inhibitory concentration (GI50) of 1.93 µM. In addition, the inhibition at 1 µM in the data set on TNF-α (1 μM, NA = No activity, read-out: TNF-α Inhibition (%) at Conc. (1 μM)) turned out to be 30%. Further, the inhibition at 10 µM with TNF-α (10 μM, read-out: TNF-α Inhibition (%) at Conc. (10 μM)) is 107%.
